Experimental findings from PubChem BioAssay (NCI) are described below.

Some test systems named below: HCT-116 colon; UACC-257 melanoma; HT29 colon; COLO 205 colon; SK-MEL-5 melanoma; SK-MEL-2 melanoma; SK-OV-3 ovarian; UACC-62 melanoma; NCI-H460 lung; RPMI-8226 leukemia.
Holding throughout (assay): inhibition of tumour cell growth, NCI panel, 48 h

Molecules are shown by their SMILES.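 Cells were grown in 96-well plates and exposed to each compound for 48 hours at five concentrations; endpoints were interpolated linearly between bracketing concentrations, or set to the highest concentration if not reached. GI50 = concentration required for 50% inhibition of growth. TGI denotes the concentration required for complete inhibition of growth.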 Where only a bound is given, the exact number is not on record here.

Consider `FC(F)(F)c1ccc2c(c1)nc(-c1ccc(Cl)cc1)n2CC1CCCN2CCCCC12` (stereo not drawn), for which the TGI in the test on HCT-116 colon stood at 27.4 µM; in the test with UACC-257 melanoma, 28.7 µM; in the test on HT29 colon, 19 µM; with COLO 205 colon it was 24.4 µM; with SK-MEL-5 melanoma it was 27.1 µM; in the test with SK-MEL-2 melanoma it was 30.2 µM. Moreover, the values for the TGI in the test on SK-OV-3 ovarian, in the test with UACC-62 melanoma and in the test on NCI-H460 lung were 21.3 µM, 28.1 µM and 31.4 µM, respectively.

On to `CC(C)(C)[Si](C)(C)Oc1ccc(C2CNC(=O)C23CCC(=O)N3Cc2ccccc2)cc1` (stereo not drawn), for which the TGI in the test with HCT-116 colon is above 100 µM; in the test with UACC-257 melanoma it was 25.7 µM; with HT29 colon it was 24.8 µM; in the test on COLO 205 colon it was 25.3 µM; in the test on SK-MEL-5 melanoma, 19.6 µM; in the test on SK-MEL-2 melanoma it was 35.5 µM. Also, the TGI was 18.8 µM with RPMI-8226 leukemia, 29 µM with SK-OV-3 ovarian, 32 µM in the test on UACC-62 melanoma and 20.8 µM in the test with NCI-H460 lung.

With `Oc1cn(-c2ccc(Cl)cc2)nc1-c1n[nH]c(=S)n1-c1ccccc1`, the TGI in the test with HCT-116 colon is 18.7 µM; in the test with UACC-257 melanoma it was above 100 µM; with HT29 colon, 44 µM; in the test with COLO 205 colon, 54.9 µM; in the test with SK-MEL-5 melanoma, 15.4 µM; with SK-MEL-2 melanoma, 52.7 µM. The TGI is above 100 µM in the test with RPMI-8226 leukemia, 51.3 µM with SK-OV-3 ovarian, 28 µM with UACC-62 melanoma and 59.4 µM in the test with NCI-H460 lung.

On to `COC(C)(C)OCCN1CCN(CCN2C3=C(C=C(C(C)=O)C3)Sc3ccccc32)CC1`, for which the TGI came to 33.6 µM in the test on HCT-116 colon; 36.9 µM in the test with UACC-257 melanoma; 33.2 µM in the test with HT29 colon; 33.4 µM with COLO 205 colon; 32 µM in the test with SK-MEL-5 melanoma; 41.4 µM with SK-MEL-2 melanoma. The TGI in the test with RPMI-8226 leukemia was determined as 32.8 µM; in the test with SK-OV-3 ovarian, 79.8 µM; with UACC-62 melanoma it was 29.4 µM; in the test on NCI-H460 lung, 35.5 µM.

As for `NCCCn1c2c(c3ccc([N+](=O)[O-])cc3c1=O)C(=O)c1ccccc1-2`, the GI50 was 0.0205 µM in the test with HCT-116 colon; 0.495 µM in the test with UACC-257 melanoma; 0.0785 µM in the test with HT29 colon; 0.33 µM in the test on COLO 205 colon; 0.0956 µM in the test with SK-MEL-5 melanoma; 1.6 µM with SK-MEL-2 melanoma. Further, the GI50 with RPMI-8226 leukemia is 0.0284 µM; with SK-OV-3 ovarian, 0.631 µM; in the test with UACC-62 melanoma, 0.102 µM; in the test on NCI-H460 lung it was 0.00887 µM. Moreover, the TGI is above 16.6 µM in the test with UACC-257 melanoma; 1.14 µM in the test with HT29 colon; 3.82 µM with COLO 205 colon; 0.479 µM in the test with SK-MEL-5 melanoma; above 50 µM with SK-MEL-2 melanoma; 2.28 µM in the test with SK-OV-3 ovarian. Moreover, the TGI in the test on UACC-62 melanoma is 0.431 µM; in the test with NCI-H460 lung it was above 50 µM.

Regarding `Cc1c2cccc-2c(OCCO)cc2c3ccccc3n(C)c12`, the TGI in the test on HCT-116 colon was 12.8 µM; in the test on UACC-257 melanoma it was 17.6 µM; with HT29 colon it was 18.3 µM; in the test on COLO 205 colon, 3.24 µM; in the test on SK-MEL-5 melanoma it was 5.77 µM; in the test with SK-MEL-2 melanoma, 12.8 µM. The TGI in the test with SK-OV-3 ovarian worked out at 7.34 µM; with UACC-62 melanoma it was 17.5 µM; in the test with NCI-H460 lung it was 18.3 µM.

For the compound `Cc1cc2c(cc1C(=O)c1ccc(N)cc1)OCO2`, the TGI in the test with HCT-116 colon is above 100 µM; in the test on UACC-257 melanoma, above 100 µM; with HT29 colon, 61.3 µM; in the test with COLO 205 colon, 41.5 µM; in the test on SK-MEL-5 melanoma it was 61.4 µM; in the test with SK-MEL-2 melanoma it was 74 µM. Further, the TGI in the test on RPMI-8226 leukemia was above 100 µM; in the test on SK-OV-3 ovarian, 85.6 µM; in the test with UACC-62 melanoma, above 100 µM; in the test on NCI-H460 lung, above 100 µM.

`COc1ccc(/C(Cl)=C(\C=O)c2ccc(OC)cc2)cc1`: the TGI in the test with HCT-116 colon, in the test on UACC-257 melanoma, in the test on HT29 colon, in the test with SK-MEL-5 melanoma, in the test on SK-MEL-2 melanoma and in the test with RPMI-8226 leukemia was above 100 µM each time. Further, the TGI in the test with SK-OV-3 ovarian, in the test on UACC-62 melanoma and with NCI-H460 lung was above 100 µM each time.

On to `CCc1nc(N)nc(N)c1-c1ccc([N+](C)(C)C)cc1`, for which the TGI in the test with HCT-116 colon, in the test with UACC-257 melanoma, with HT29 colon, with COLO 205 colon, in the test on SK-MEL-5 melanoma and in the test on SK-MEL-2 melanoma was above 100 µM each time. Further, the TGI with RPMI-8226 leukemia, with SK-OV-3 ovarian, in the test on UACC-62 melanoma and in the test with NCI-H460 lung was above 100 µM throughout.

`O=P1(c2ccccc2)Nc2ccccc2SSc2ccccc2N1`: the TGI with HCT-116 colon turned out to be 31.4 µM; with UACC-257 melanoma it was 30.3 µM; in the test with HT29 colon it was 37.1 µM; in the test on COLO 205 colon, 42.4 µM; with SK-MEL-5 melanoma, 31.6 µM; in the test with SK-MEL-2 melanoma, 32.2 µM. For the same compound, the TGI in the test with RPMI-8226 leukemia is 45.3 µM; in the test with SK-OV-3 ovarian it was 44.4 µM; in the test on UACC-62 melanoma it was 29.8 µM; in the test with NCI-H460 lung, 33.8 µM.

As for `Cc1cc(/N=C/c2ccc(F)cc2)n(-c2ccccc2)n1`, the TGI with HCT-116 colon, with UACC-257 melanoma, with HT29 colon, in the test with COLO 205 colon, in the test on SK-MEL-5 melanoma and with SK-MEL-2 melanoma was above 100 µM in each case. For the same compound, the TGI is 92.8 µM in the test on RPMI-8226 leukemia, above 100 µM in the test on SK-OV-3 ovarian, above 100 µM with UACC-62 melanoma and above 100 µM in the test on NCI-H460 lung.

For `CCOC(=O)c1c2c(n(Cc3ccccc3)c1C)C(=O)C(=O)c1ccccc1-2`, the TGI with HCT-116 colon worked out at 0.692 µM; in the test with UACC-257 melanoma, 0.285 µM; in the test with COLO 205 colon, 1.69 µM; in the test on SK-MEL-5 melanoma, 0.742 µM; in the test with RPMI-8226 leukemia it was 0.83 µM; in the test on SK-OV-3 ovarian it was 5.76 µM. For the same compound, the TGI in the test on UACC-62 melanoma was determined as 1.65 µM; in the test on NCI-H460 lung, 1.5 µM.
